ChEMBL document CHEMBL5126592, “Design, synthesis and activity against drug-resistant bacteria evaluation of C-20, C-23 modified 5-O-mycaminosyltylonolide derivatives” (Eur J Med Chem, 2022)
Converted amounts (≈) assume the structure as drawn. The source made the active and inactive calls. No cut-off for these calls is given here.

What was measured:
Format in all cases: functional
[1] = test system: Staphylococcus chromogenes; assay: Antibacterial activity against Staphylococcus chromogenes incubated for 16 to 20 hrs by broth microdilution method; details: time 16-20 hrs
[2] = test system: Klebsiella pneumoniae; assay: Antibacterial activity against Klebsiella pneumoniae ATCC 13883 incubated for 16 to 20 hrs by broth microdilution method; details: time 16-20 hrs
[3] = test system: Staphylococcus aureus; assay: Antibacterial activity against Staphylococcus aureus ATCC 25923 incubated for 16 to 20 hrs by broth microdilution method; details: time 16-20 hrs
[4] = test system: Escherichia coli; assay: Antibacterial activity against Escherichia coli incubated for 16 to 20 hrs by broth microdilution method; details: time 16-20 hrs
[5] = test system: Enterococcus faecium; assay: Antibacterial activity against Enterococcus faecium incubated for 16 to 20 hrs by broth microdilution method; details: time 16-20 hrs
[6] = test system: Escherichia coli; assay: Antibacterial activity against Escherichia coli ATCC 25922 incubated for 16 to 20 hrs by broth microdilution method; details: time 16-20 hrs
[7] = test system: Streptococcus dysgalactiae; assay: Antibacterial activity against Streptococcus dysgalactiae incubated for 16 to 20 hrs by broth microdilution method; details: time 16-20 hrs
[8] = test system: Pseudomonas aeruginosa; assay: Antibacterial activity against Pseudomonas aeruginosa LTP-3 incubated for 16 to 20 hrs by broth microdilution method; details: time 16-20 hrs
[9] = test system: Staphylococcus aureus; assay: Antibacterial activity against Staphylococcus aureus incubated for 16 to 20 hrs by broth microdilution method; details: time 16-20 hrs
[10] = test system: Cronobacter sakazakii; assay: Antibacterial activity against Cronobacter sakazakii ATCC 29544 incubated for 16 to 20 hrs by broth microdilution method; details: time 16-20 hrs
[11] = test system: Staphylococcus aureus; assay: Antibacterial activity against Staphylococcus aureus ATCC 29213 at pH 8.6 incubated for 16 to 20 hrs in presence of 50% foetal bovine serum by broth microdilution method; details: time 16-20 hrs
[12] = test system: Staphylococcus aureus; assay: Antibacterial activity against Staphylococcus aureus ATCC 29213 at pH 8.6 incubated for 16 to 20 hrs in presence of 5% foetal bovine serum by broth microdilution method; details: time 16-20 hrs
[13] = test system: Escherichia coli; assay: Induction of drug resistance in Escherichia coli ATCC 25922 assessed as increase in MIC measured after 30 passages by broth microdilution method
[14] = test system: Staphylococcus aureus; assay: Antibacterial activity against Staphylococcus aureus ATCC 29213 at pH 8.6 incubated for 16 to 20 hrs in presence of 10% foetal bovine serum by broth microdilution method; details: time 16-20 hrs
[15] = test system: Staphylococcus aureus; assay: Antibacterial activity against Staphylococcus aureus ATCC 29213 at pH 8.6 incubated for 16 to 20 hrs in presence of 25% foetal bovine serum by broth microdilution method; details: time 16-20 hrs
[16] = test system: Staphylococcus aureus; assay: Antibacterial activity against Staphylococcus aureus ATCC 29213 incubated for 16 to 20 hrs using 10^5 CFU/ml bacterial inoculum by broth microdilution method; details: time 16-20 hrs
[17] = test system: Staphylococcus aureus; assay: Antibacterial activity against Staphylococcus aureus ATCC 29213 incubated for 16 to 20 hrs using 10^6 CFU/ml bacterial inoculum by broth microdilution method; details: time 16-20 hrs
[18] = test system: Staphylococcus aureus; assay: Antibacterial activity against Staphylococcus aureus ATCC 29213 incubated for 16 to 20 hrs using 10^4 CFU/ml bacterial inoculum by broth microdilution method; details: time 16-20 hrs
[19] = test system: Staphylococcus aureus; assay: Antibacterial activity against Staphylococcus aureus ATCC 29213 incubated for 16 to 20 hrs using 10^3 CFU/ml bacterial inoculum by broth microdilution method; details: time 16-20 hrs

| MIC [1] [µg/mL] | MIC [2] [µg/mL] | MIC [3] [µg/mL] | MIC [4] [µg/mL] | MIC [5] [µg/mL] | MIC [6] [µg/mL] | MIC [7] [µg/mL] | MIC [8] [µg/mL] | MIC [9] [µg/mL] | MIC [10] [µg/mL] | SMILES | MIC [11] [µg/mL] | MIC [12] [µg/mL] | Activity [13] | MIC [14] [µg/mL] | MIC [15] [µg/mL] | MIC [16] [µg/mL] | MIC [17] [µg/mL] | MIC [18] [µg/mL] | MIC [19] [µg/mL] |
| --- | --- | --- | --- | --- | --- | --- | --- | --- | --- | --- | --- | --- | --- | --- | --- | --- | --- | --- | --- |
|  | 32 (≈ 35.6 µM) | 0.5 (≈ 0.557 µM) |  |  | 32 (≈ 35.6 µM) |  |  |  | 32 (≈ 35.6 µM) | CC[C@H]1OC(=O)C[C@@H](O)[C@H](C)[C@@H](O[C@@H]2O[C@H](C)[C@@H](O)[C@H](N(C)C)[C@H]2O)[C@@H](CCN(Cc2cccnc2)Cc2cn(-c3cnc4ccccc4c3)nn2)C[C@@H](C)C(=O)/C=C/C(C)=C/[C@@H]1CO |  |  |  |  |  |  |  |  |  |
|  | 16 (≈ 16 µM) | 2 (≈ 2.01 µM) |  |  | 32 (≈ 32.1 µM) |  |  |  | 16 (≈ 16 µM) | CC[C@H]1OC(=O)C[C@@H](O)[C@H](C)[C@@H](O[C@@H]2O[C@H](C)[C@@H](O)[C@H](N(C)C)[C@H]2O)[C@@H](CCN(Cc2cn(-c3cnc4ccccc4c3)nn2)Cc2ccco2)C[C@@H](C)C(=O)/C=C/C(C)=C/[C@@H]1CI |  |  |  |  |  |  |  |  |  |
|  | 16 (≈ 16.5 µM) | 4 (≈ 4.12 µM) |  |  | 8 (≈ 8.25 µM) |  |  |  | 16 (≈ 16.5 µM) | CC[C@H]1OC(=O)C[C@@H](O)[C@H](C)[C@@H](O[C@@H]2O[C@H](C)[C@@H](O)[C@H](N(C)C)[C@H]2O)[C@@H](CCN(Cc2cn(-c3cnc4ccccc4c3)nn2)Cc2ccco2)C[C@@H](C)C(=O)/C=C/C(C)=C/[C@@H]1CN1CCC(O)CC1 |  |  |  |  |  |  |  |  |  |

Further lines, the compound ahead of its results:

| SMILES | MIC [1] [µg/mL] | MIC [2] [µg/mL] | MIC [3] [µg/mL] | MIC [4] [µg/mL] | MIC [5] [µg/mL] | MIC [6] [µg/mL] | MIC [7] [µg/mL] | MIC [8] [µg/mL] | MIC [9] [µg/mL] | MIC [10] [µg/mL] | MIC [11] [µg/mL] | MIC [12] [µg/mL] | Activity [13] | MIC [14] [µg/mL] | MIC [15] [µg/mL] | MIC [16] [µg/mL] | MIC [17] [µg/mL] | MIC [18] [µg/mL] | MIC [19] [µg/mL] |
| --- | --- | --- | --- | --- | --- | --- | --- | --- | --- | --- | --- | --- | --- | --- | --- | --- | --- | --- | --- |
| NC[C@H]1O[C@H](O[C@H]2[C@H](O)[C@@H](O[C@H]3O[C@H](CO)[C@@H](O)[C@H](N)[C@H]3O)[C@H](N)C[C@@H]2N)[C@H](N)C[C@@H]1O [TOBRAMYCIN] | 2 (≈ 4.28 µM) | 8 (≈ 17.1 µM) | 8 (≈ 17.1 µM) | > 32 | 32 (≈ 68.4 µM) | 8 (≈ 17.1 µM) | 16 (≈ 34.2 µM) | 32 (≈ 68.4 µM) | 1 (≈ 2.14 µM) | 16 (≈ 34.2 µM) |  |  |  |  |  |  |  |  |  |
| CC(=O)NC[C@H]1CN(c2ccc(N3CCOCC3)c(F)c2)C(=O)O1 [LINEZOLID] | 1 (≈ 2.96 µM) | > 32 |  | 32 (≈ 94.9 µM) | 2 (≈ 5.93 µM) | > 32 | 2 (≈ 5.93 µM) | 32 (≈ 94.9 µM) | 1 (≈ 2.96 µM) | > 32 | > 32 | > 32 | Active | > 32 | > 32 | 0.5 (≈ 1.48 µM) | 1 (≈ 2.96 µM) | 0.25 (≈ 0.741 µM) | 0.25 (≈ 0.741 µM) |
| CC[C@H]1OC(=O)C[C@@H](O)[C@H](C)[C@@H](O[C@@H]2O[C@H](C)[C@@H](O)[C@H](N(C)C)[C@H]2O)[C@@H](CCN(C)Cc2cn(-c3cnc4ccccc4c3)nn2)C[C@@H](C)C(=O)/C=C/C(C)=C/[C@@H]1CN(CC)CC | 1 (≈ 1.14 µM) | 1 (≈ 1.14 µM) | 0.125 (≈ 0.143 µM) | 4 (≈ 4.57 µM) | 2 (≈ 2.28 µM) | 2 (≈ 2.28 µM) | 0.5 (≈ 0.571 µM) | 2 (≈ 2.28 µM) | 0.5 (≈ 0.571 µM) | 4 (≈ 4.57 µM) |  |  |  |  |  |  |  |  |  |
| CC[C@H]1OC(=O)C[C@@H](O)[C@H](C)[C@@H](O[C@@H]2O[C@H](C)[C@@H](O)[C@H](N(C)C)[C@H]2O)[C@@H](CCN(Cc2ccccc2)Cc2cn(-c3cnc4ccccc4c3)nn2)C[C@@H](C)C(=O)/C=C/C(C)=C/[C@@H]1CO | 4 (≈ 4.46 µM) | 8 (≈ 8.92 µM) | 0.25 (≈ 0.279 µM) | 8 (≈ 8.92 µM) | 4 (≈ 4.46 µM) | 8 (≈ 8.92 µM) | 0.5 (≈ 0.557 µM) | 4 (≈ 4.46 µM) | 0.5 (≈ 0.557 µM) | 32 (≈ 35.7 µM) |  |  |  |  |  |  |  |  |  |
| CC[C@H]1OC(=O)C[C@@H](O)[C@H](C)[C@@H](O[C@@H]2O[C@H](C)[C@@H](O)[C@H](N(C)C)[C@H]2O)[C@@H](CCN(C)Cc2cn(-c3cnc4ccccc4c3)nn2)C[C@@H](C)C(=O)/C=C/C(C)=C/[C@@H]1CN1CCCCC1 | 0.5 (≈ 0.563 µM) | 2 (≈ 2.25 µM) | 0.5 (≈ 0.563 µM) | 2 (≈ 2.25 µM) | 1 (≈ 1.13 µM) | 2 (≈ 2.25 µM) | 0.5 (≈ 0.563 µM) | 1 (≈ 1.13 µM) | 0.25 (≈ 0.281 µM) | 8 (≈ 9.01 µM) |  |  |  |  |  |  |  |  |  |
| CC[C@H]1OC(=O)C[C@@H](O)[C@H](C)[C@@H](O[C@@H]2O[C@H](C)[C@@H](O)[C@H](N(C)C)[C@H]2O)[C@@H](CCN(Cc2ccc(N(C)C)cc2)Cc2cn(-c3cnc4ccccc4c3)nn2)C[C@@H](C)C(=O)/C=C/C(C)=C/[C@@H]1CI |  | 16 (≈ 15.2 µM) | 4 (≈ 3.81 µM) |  |  | 32 (≈ 30.5 µM) |  |  |  | 32 (≈ 30.5 µM) |  |  |  |  |  |  |  |  |  |
